Source: patent publication US20110171285A1, “Design of Fibrinogen and Fibrinogen Derived Products with Reduced Bacterial Binding by Using Modified Sequences of Fibrinogen Chains” (priority 2009, published 2011)
Ends that are not written are not given here.

Key:
rClfA229-545 = biological target: T1, rClfA229-545 (Staphylococcus aureus, UniProt Q53653); test: Isothermal titration calorimetry of Fg γ-peptide binding to rClfA229-545
T1 construct: 6xHis; made in house; host or cells: E. coli
T1 sequence (Q53653 229-545): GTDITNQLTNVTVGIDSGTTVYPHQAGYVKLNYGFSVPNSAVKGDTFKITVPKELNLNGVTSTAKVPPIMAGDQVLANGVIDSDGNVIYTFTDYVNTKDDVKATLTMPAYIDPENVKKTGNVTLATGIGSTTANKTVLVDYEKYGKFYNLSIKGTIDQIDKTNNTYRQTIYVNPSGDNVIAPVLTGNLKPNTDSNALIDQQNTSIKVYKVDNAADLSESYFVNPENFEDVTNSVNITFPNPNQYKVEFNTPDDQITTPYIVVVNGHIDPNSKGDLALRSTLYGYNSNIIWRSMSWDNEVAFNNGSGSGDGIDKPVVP
Description: Peptide 0.6-0.9 mM was injected into a cell with rClfA229-545 in a VP-ITC (MicroCal Inc.). The resulting data was analyzed using Origin 5.0 from MicroCal using a single binding site model.

S. aureus USA300 NARSA = test: Adherence of S. aureus USA300 NARSA to Fg coated microtiter plates (crystal violet, OD 590 nm); format: cell-based; conditions: 1 μg Fg/well, MRSA strain grown over-night in tryptic soy broth (FIG. 7)
Description: Microtiter plates were coated with 1 μg human or salmon Fg per well over-night at 4° C., followed by blocking with 5% bovine serum albumin in TBS-T (Tris-buffered saline with 0.05% Tween-20) in room temperature for about 1 hour. Two bacterial colonies (designated by 1 or 2 in FIG. 7) of S. aureus USA300 NARSA (an MRSA strain) were inoculated in tryptic soy broth at 37° C. over-night, washed and resuspended in PBS and various bacterial dilutions were incubated in the wells for 1 hour at room temperature. After washing in PBS, bound bacteria was fixed using 25% formaldehyde followed by 0.5% crystal violet stain. After PBS washing, 10% acetic acid was added and bound color was measured by crystal violet staining and optical density read at 590 nm in a microtiter plate reader.

ClfA229-545 = ClfA229-545 (Staphylococcus aureus, UniProt Q53653); conditions: 1 μg Fg/well, varying concentrations of ClfA229-545, read at 405 nm (FIG. 6)
Description: About 3 mg lyophilized salmon Fg (batch “A”) was dissolved into 3 mg/ml in PBS. Human and salmon Fg was coated onto 4HBX microtiter plates (1 μg/well) at 4° C. over-night in Dulbecco's PBS without MgCl2 nor CaCl2 ions). The plate was blocked for 1 hour room temperature (RT) using 5% bovine serum albumin (BSA) in TBS-T. Recombinant His-tagged ClfA229-545 was added in varying concentrations to test for binding to Fg using TBS solution for 1 hour at room temperature. Bound ClfA was detected with anti-ClfA rabbit antibodies (dil 1:2000) in TBS-T with 1% BSA followed by goat anti-rabbit secondary antibodies (dil 1:2000) conjugated to alkaline phosphatase using the same buffer. Color detection was read after 30-60 min at 405 nm in a microtiter plate reader using phospatase substrate from Sigma dissolved in 1M DEA. No background subtraction, data points are triplicates except for no ClfA where six data points were used. Human or salmon Fg was coated over-night and after blocking varying concentrations of ClfA was added to Fg.

Substance	Kd (rClfA229-545)	binding to ClfA229-545 (rClfA229-545; ITC, in solution (FIGS. 3A and 3B))	binding (adherence) of S. aureus USA300 to coated Fg (S. aureus USA300 NARSA)	binding of ClfA N2N3 to coated Fg (ClfA229-545)
GEGQQHHLGGAKQAGDV [human 17-mer peptide]	23 µM			
GQQHHLGGAKQAGDV [human 15-mer peptide]	40 µM	binds to ClfA		
human Fg: human fibrinogen			bound	dose-dependent binding
